Where two headings read alike, the source gives them in different places.
Assays:
[1] = Mammary tissue-to-plasma concentration after intravenous dosing; type: in vivo, rat (female Sprague-Dawley); conditions: rat, 5 mg/kg i.v., after 24 hr, read-out: ratio of mammary tissue-to-plasma concentrations
[2] = Stability of retinyl ethers in storage and in solution; type: physicochemical
[3] = tested on: MNU-induced mammary cancer; test: Short-term (90-day) assay against MNU-induced mammary cancer in rats (Expts. 2 and 3); type: in vivo, rat (female Sprague-Dawley); conditions: 90 days
Method: (§1) Retinoid diet mixtures were stored at 4° C. […] The animals were palpated for mammary tumors 2×/week. […] Also, five rats/group had complete necropsies performed.
(§2) The 2,5-dimethoxybenzyl (3b) and 4-methoxybenzyl (3e) ethers were tested in the same way in a 90-day study. […] The 2,5-dimethybenzyl (3c) and the 2,3-dimethoxybenzyl (3h) ethers, together with RTMBE for comparison, were likewise assayed according to the same methodology. Prior to the beginning of this study, specimens of the retinoid-diet mixtures were placed under the conditions that were employed during the storage and feeding of RTMBE, 3c, and 3h. The specimens were extracted with butanol, and the extracts were analyzed by HPLC. […] Testing of 3c and 3h was discontinued, but the RTMBE study was continued until the duration of the study was 180 days (Table 6). The results were similar to those of Experiment 1 (Table 3). The averages of the number of tumors per rat were reduced by 32-35%; in addition, the averages of the tumor weights per rat was 56-70% lower than the average tumor burden of the control group.
and was continued until the studies of 3b, 3c, 3e, and 3h were terminated
90 days after administration of MNU. The RTMBE experiment was continued
until 180 days after MNU administration (Table VI).
kilogram of Teklad diet.

[4] = tested on: MNU-induced mammary cancer; test: 180-day study of RTMBE for suppression of MNU-induced mammary carcinogenesis (Expt. 3); type: in vivo, rat (female Sprague-Dawley)
Method: as §1, §2
^a Each group of female Sprague-Dawley rats (10/group) received one
until Day 180 after injection of MNU.
and was continued until the study was terminated at 180 days after MNU.

[5] = tested on: serum retinol-binding protein (RBP); test: Binding to serum retinol-binding protein (RBP): inhibition of [3H]retinol binding; conditions: % of that of retinol
[6] = Tissue concentrations resulting from gavage of rats with RTMBE; type: in vivo, rat (female Sprague-Dawley); conditions: for concentration at 168 h / concentration at 336 h: rat, po, 14 mg/day by gavage; for concentration at 168 h: 7 days; for concentration at 336 h: 14 days
Method: To plasma samples (50-200 μl), ten volumes of acetonitrile were added, and the preparations were centrifuged. The supernatants were evaporated to dryness under nitrogen and reconstituted in the mobile phase (see below). Tissues were homogenized in four volumes of water at 0° C., and each homogenate was extracted with acetonitrile (50 mL/g tissue). From this point, handling of plasma and tissue samples was identical. Portions (25-50 μl) of the reconstituted samples were analyzed by reverse-phase HPLC. The chromatographic system was composed of a Beckman solvent delivery module 110B, analogue interface module 406, programable detector module 166, and autosampler 507. The column was a Hypersil ODS, 5-μ, 250×4.6 mm. Elution was accomplished with a solvent of methanol:0.2%acetic acid (93.5:6.5, v/v) with the final solution containing 0.02% triethylamine. The flow rate was 1 mL/min, with detection at 340 nm.
The concentrations of RTMBE in the serum, mammary gland, and liver of rats, as well as the levels of RP in the liver, were determined after administration of RTMBE by gavage during 14 days (Table 9). […] In order to investigate further the accumulation of retinyl benzyl ethers in mammary tissue, RTMBE, the 2,5-dimethoxybenzyl ether (3b), and the 4-methoxybenzyl (3e) ether were administered intravenously (via a tail vein) at 5 mg/kg to female Sprague-Dawley rats (3 with each retinoid). Acetonitrile extracts of plasma and mammary tissue were analyzed by HPLC. The ratios of mammary tissue-to-plasma concentrations of RTMBE, 3b, and 3e were 183±77, 38±20, and 41±14, respectively, after 24 hr.
^a The dose of 14 mg/day by gavage is equivalent to a feeding dose of 2

[7] = 7 days, 25.5±1.5° C., protected
[8] = mammary gland, read-out: RTMBE, Mammary Gland

With `COc1cc(COC/C=C(C)/C=C/C=C(C)/C=C/C2=C(C)CCCC2(C)C)cc(OC)c1OC` [Compound 2, Retinyl 3,4,5-Trimethoxybenzyl Ether] the Kp at 24 h [1] was 183 ± 77, the stability on storage ([2]; 5 years at -20° C., inert atmosphere) was “unchanged” and the “stability in DMSO” value [2, 7] was “changed very little”. The “stability in absolute ethanol” value [2, 7] was “practically unchanged”, the remaining at 43830 h ([2]; inert atmosphere storage, 5 years at -20° C., inert atmosphere, read-out: HPLC on re-analysis after storage) was 99.2% and the “reduction of the number of tumors per rat” value ([3]; at 1 mmol/kg) was 64%. The “Tumors, % of Control Gp.” value ([3]; Expt. 3, 0.5 mmol/kg diet) was 78%, the “Tumors, Avg. No. per Rat” value ([3]; Expt. 3, 0.5 mmol/kg diet) was 1.5 and the “Tumors, % of Control Gp.” value ([3]; Expt. 3, 1 mmol/kg diet) was 36%. The “Tumors, Avg. No. per Rat” value ([3]; Expt. 3, 1 mmol/kg diet) was 0.7, the “Tumors, % of Control Gp.” value ([3]; Expt. 3, 2 mmol/kg diet) was 36% and the “Tumors, Avg. No. per Rat” value ([3]; Expt. 3, 2 mmol/kg diet) was 0.7. For the same molecule, the “Adenocarcinomas, % of Control Gp.” value ([4]; 0.5 mmol/kg diet, 180 days) was 65%, the “Adenocarcinomas, Avg. No. Per Rat” value ([4]; 0.5 mmol/kg diet, 180 days) was 4.07 and the “Final Body Wt.” value ([4]; 0.5 mmol/kg diet, 180 days) was 259 g. The “Tumor Wt. Per Rat” value ([4]; 0.5 mmol/kg diet, 180 days) was 7.0 g, the “Adenocarcinomas, % of Control Gp.” value ([4]; 1 mmol/kg diet, 180 days) was 67% and the “Adenocarcinomas, Avg. No. Per Rat” value ([4]; 1 mmol/kg diet, 180 days) was 4.20. For the same molecule, the “Final Body Wt.” value ([4]; 1 mmol/kg diet, 180 days) was 252 g, the “Tumor Wt. Per Rat” value ([4]; 1 mmol/kg diet, 180 days) was 7.57 g and the “Adenocarcinomas, % of Control Gp.” value ([4]; 2 mmol/kg diet, 180 days) was 68%. For the same molecule, the “Adenocarcinomas, Avg. No. Per Rat” value ([4]; 2 mmol/kg diet, 180 days) was 4.27, the “Final Body Wt.” value ([4]; 2 mmol/kg diet, 180 days) was 246 g and the “Tumor Wt. Per Rat” value ([4]; 2 mmol/kg diet, 180 days) was 5.14 g. The “average tumor weight per rat lower than control group” value ([4]; 180 days, 0.5-2 mmol/kg diet) was 56-70%, the “reduction of average number of tumors per rat” value ([4]; 180 days, 0.5-2 mmol/kg diet) was 32-35% and the “suppression of MNU-induced mammary cancer” value ([4]; three long-term experiments of 160-180 days) was “suppressed MNU-induced mammary cancer”. The “inhibition of [3H] retinol-binding (RBP), relative to that of retinol” value [5] was 70%, the “liver levels of RP compared with vehicle group” value ([6]; after 14 days, gavage) was “only slightly higher than the levels of the vehicle group” and the “change of serum concentration of RTMBE” value ([6]; between 7 and 14 days, gavage) was “did not change significantly”. The “increase of concentration in mammary gland” value ([6]; between 7 and 14 days, gavage) was “more than two-fold”, the “increase of liver level of RTMBE” value ([6]; between 7 and 14 days, gavage) was 22% and the concentration at 168 h ([6]; liver, read-out: RTMBE, Liver) was 78900 ± 7500 ng/g. For the same molecule, the concentration at 336 h ([6]; liver, read-out: RTMBE, Liver) was 96100 ± 11100 ng/g, the concentration at 168 h [6, 8] was 83300 ± 7300 ng/g and the concentration at 336 h [6, 8] was 178000 ± 11100 ng/g. The concentration at 168 h ([6]; serum, read-out: RTMBE, Serum) was 16.3 ± 2.5 µg/mL and the concentration at 336 h ([6]; serum, read-out: RTMBE, Serum) was 17.3 ± 2.2 µg/mL.

— US6281250A, “Retinyl ethers, derivatives and analogues and inhibition of breast carcinogenesis” (Southern Research Institute, priority 1999, dated 2001)
